{"source": "paper PMC12431657", "about": "“Discovery and mechanistic insights of dibenzoylmethane as a broad spectrum inhibitor of coronavirus” (PLOS Pathogens, 2025)", "key": {"[1]": {"assay": "Metabolic stability in human liver microsomes", "assay_type": "in vitro ADME", "settings": "average, read-out: T1/2 of metabolism", "procedure": "(§1) Thus, a pharmacokinetic study was performed for DBM in Sprague-Dawley (SD) rats. Following oral administration of menstruum or DBM at 200 mpk, blood samples from the rats were collected at 2 min, 5 min, 15 min, 30 min, 1 h, 2 h, 4 h, 8 h, and 24 h posttreatment. The concentration of DBM in the plasma was determined by liquid chromatography with tandem mass spectrometry (LC-MS/MS). The minimum effective concentration (MEC) line in the graph represents the EC95 value of DBM (Fig 3C). […] To analyse the metabolic stability of DBM, we incubated human and mouse liver microsomes with DBM. The T1/2 of metabolism was an average of 13.92 min in human liver microsomes and 4.84 min in mouse liver microsomes."}, "[2]": {"tested_on": "IFN signalling", "assay": "IFNB1 and IFN-stimulated gene expression (qPCR)", "assay_type": "cell-based"}, "[3]": {"tested_on": "HCoV-OC43", "assay": "Time-of-addition assay", "assay_type": "cell-based", "settings": "for time-of-addition, viral inhibition: replicates", "procedure": "(§2) To obtain further insight into the stage at which DBM inhibits the replication of HCoV-OC43 and other HCoVs, RD cells were incubated with compounds, including DBM, remdesivir (RDV), and chloroquine (CQ), at different stages of viral infection. Viral RNA from the supernatant was extracted and quantitatively analysed via qRT-PCR. […] For the viral binding assay, cells were cultured in the presence or absence of DBM at different concentrations for 1 hour before being infected with HCoV-OC43 at an MOI of 50, and then were placed on ice for 2 hours for the viral particles to bind to the membrane of the host cells, followed by washing with PBS. […] In addition to binding to receptors from host cells, the spike proteins of HCoV-OC43 could also trigger membrane fusion when HCoV-OC43 spike plasmid-transfected 293T cells were seeded together with RD cells as target cells, and the addition of DBM had no effect on this process (S5C Fig). To examine whether DBM inhibits viral internalisation, cells were inoculated with HCoV-OC43 for 1 hour on ice before being treated with either DBM or DMSO, and CQ was included to prevent endosomal acidification. Subsequently, HCoV-OC43 nucleocapsid proteins were immunostained with CoraLite Plus 488 to assess viral internalisation via confocal microscopy. […] To determine whether DBM influences viral release, we quantified viral RNA both intracellularly and in the supernatant.\nTo evaluate the effects of DBM on the life cycle of HCoV-229E and HCoV-OC43, fresh culture medium containing 0.6 μM DBM, 0.1 μM remdesivir (RDV), or 10 μM chloroquine (CQ) was supplemented with preseeded cells at different time points relative to infection (entry group: 0 to –2 hours; postinfection group: 2–12 hours; and full-time group: 0 to –12 hours). DMSO served as the control. At 24 hours postinfection, the number of intracellular virus RNA copies was quantified by qRT-PCR as previously described."}, "[4]": {"target": "T1, caspase-6 (Homo sapiens, UniProt P55212)", "T1 construct": "endogenous in cells", "T1 sequence (P55212 24-293)": "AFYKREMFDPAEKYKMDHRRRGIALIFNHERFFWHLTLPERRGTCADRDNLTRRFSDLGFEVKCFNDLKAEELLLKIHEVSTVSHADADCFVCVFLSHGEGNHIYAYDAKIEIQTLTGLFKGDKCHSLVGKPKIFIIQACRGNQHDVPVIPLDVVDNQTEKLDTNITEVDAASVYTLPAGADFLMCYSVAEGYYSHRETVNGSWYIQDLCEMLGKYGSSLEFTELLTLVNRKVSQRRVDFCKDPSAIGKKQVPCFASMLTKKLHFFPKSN", "assay_type": "cell-based"}, "[5]": {"target": "caspase-6 (Homo sapiens, UniProt P55212)", "assay_type": "cell-based", "settings": "STS-treated cells"}, "[6]": {"assay": "Metabolic stability in mouse liver microsomes", "assay_type": "in vitro ADME", "settings": "average, read-out: T1/2 of metabolism", "procedure": "as §1"}, "[7]": {"tested_on": "HCoV-OC43", "assay": "HCoV-OC43 nucleocapsid protein and caspase-6 in infected cells (Western blot)", "assay_type": "cell-based", "settings": "cells pretreated with serially diluted compound"}, "[8]": {"tested_on": "HCoV-NL63", "assay": "Antiviral activity in vitro, HCoV-NL63", "assay_type": "cell-based", "settings": "Human coronavirus NL63, read-out: EC50 HCoV-NL63"}, "[9]": {"tested_on": "HCoV-OC43", "assay": "Viral entry and internalization assay", "assay_type": "cell-based", "settings": "confocal microscopy", "procedure": "as §2, with “Fig).” for “Fig). To examine whether DBM inhibits viral internalisation, cells were inoculated with HCoV-OC43 for 1 hour on ice before being treated with either DBM or DMSO, and CQ was included to prevent endosomal acidification. Subsequently, HCoV-OC43 nucleocapsid proteins were immunostained with CoraLite Plus 488 to assess viral internalisation via confocal microscopy.”\nThe cells were seeded at a low density onto 35 mm glass bottom dishes with 10 mm microwells (Cellvis) and incubated overnight at 37 °C. […] The number of intracellular virus particles was quantified with ImageJ software."}, "[10]": {"tested_on": "enterovirus EV71", "assay_type": "cell-based"}, "[11]": {"tested_on": "caspase-6", "assay_type": "cell-based"}, "[12]": {"tested_on": "HCoV-OC43", "assay": "Viral binding assay", "assay_type": "cell-based", "settings": "MOI of 50, on ice 2 hours", "procedure": "as §2, with “Fig).” for “Fig). To examine whether DBM inhibits viral internalisation, cells were inoculated with HCoV-OC43 for 1 hour on ice before being treated with either DBM or DMSO, and CQ was included to prevent endosomal acidification. Subsequently, HCoV-OC43 nucleocapsid proteins were immunostained with CoraLite Plus 488 to assess viral internalisation via confocal microscopy.”\nThe cells were seeded onto 24-well plates and incubated overnight at 37 °C. […] The cells were washed three times with PBS before total RNA was extracted and analysed by qRT-PCR as previously described."}, "[13]": {"tested_on": "HCoV-OC43", "assay": "Antiviral activity in vitro, qRT-PCR, HCoV-OC43 in RD cells", "assay_type": "cell-based", "settings": "for EC50 (OC43, RD): inhibition at the concentration: replicates"}}, "note": "Where “and” joins values, the source holds several entries; their conditions need not be identical. Identical values can stand only once. Like-named read-outs stand apart in the source and are kept apart here.", "data": [{"compound": "O=C(CC(=O)c1ccccc1)c1ccccc1", "note": "[DBM, dibenzoylmethane]", "values": [{"measurement": "half-life", "setting": "[1]", "result": 13.9, "unit": "min"}, {"measurement": "IFITM3 expression", "setting": "[2]", "result": "1.19 and 1.66 and 1.36"}, {"measurement": "IFNB1 expression", "setting": "[2]", "result": "6.09 and 4.34 and 4.64"}, {"measurement": "OAS1 expression", "setting": "[2]", "result": "1.74 and 2.26 and 1.65"}, {"measurement": "suppression of IFN signalling by caspase-6 and nucleocapsid proteins (IFNB1, ISGs)", "setting": "[2]", "result": "reversed the suppression of IFN signalling"}, {"measurement": "IFN signalling in HCoV-OC43-infected cells", "setting": "[2]; IFNB1 and ISG mRNA", "result": "enhanced IFN signalling"}, {"measurement": "time-of-addition, viral inhibition", "setting": "[3]; Entry", "result": "44.1 and 45.1 and 75.5"}, {"measurement": "time-of-addition, viral inhibition", "setting": "[3]; Full-Time", "result": "98.8 and 98.7 (2×)"}, {"measurement": "time-of-addition, viral inhibition", "setting": "[3]; Post-Entry", "result": "79.3 and 93.6 and 93.3"}, {"measurement": "HCoV-OC43 infection, compound incubated before and during virus infection", "setting": "[3]; RD cells, 0.6 μM DBM", "result": "did not significantly inhibit"}, {"measurement": "replication of HCoV-OC43, compound added 2 hours after virus inoculation", "setting": "[3]; RD cells, 0.6 μM DBM", "result": "potently inhibited"}, {"measurement": "activity of caspase-6 in treated cells", "setting": "[4]", "result": "decrease in the activity of caspase-6"}, {"measurement": "Caspase-6 activity (Fig5J)", "setting": "[4]; time point 0, replicates", "result": "8.2 and 8.1 and 9.0"}, {"measurement": "Caspase-6 activity (Fig5J)", "setting": "[4]; time point 2, replicates", "result": "11.9 and 12.2 and 11.5"}, {"measurement": "Caspase-6 activity (Fig5J)", "setting": "[4]; time point 4, replicates", "result": "16.7 and 15.6 and 16.4"}, {"measurement": "Caspase-6 activity (Fig5J)", "setting": "[4]; time point 6, replicates", "result": "12.2 and 13.5 and 13.6"}, {"measurement": "Caspase-6 activity (Fig5J)", "setting": "[4]; time point 8, replicates", "result": "13.0 and 12.4 and 9.9"}, {"measurement": "levels of cleaved HCoV-OC43 and SARS-CoV-2 nucleocapsid proteins", "setting": "[5]", "result": "significantly reduces"}, {"measurement": "half-life", "setting": "[6]", "result": 4.84, "unit": "min"}, {"measurement": "virus replication (nucleocapsid protein, Western blot)", "setting": "[7]", "result": "inhibited virus replication"}, {"measurement": "EC50", "setting": "[8]", "result": 11.7, "unit": "µM"}, {"measurement": "viral internalisation", "setting": "[9]", "result": "did not interfere"}, {"measurement": "antiviral activity against EV71", "setting": "[10]", "result": "no antiviral activity"}, {"measurement": "Caspase-6/CASP6 level relative to DMSO (Fig5I)", "setting": "[11]", "result": "75.9 and 67.7 and 60.2 and 63.8"}, {"measurement": "relative level of CASP6 mRNA", "setting": "[11]", "result": "decreased"}, {"measurement": "viral binding", "setting": "[12]", "result": "did not interfere"}, {"measurement": "EC50", "setting": "[13]; Betacoronavirus 1, OC43, RD, 24 h, read-out: EC50 HCoV-OC43 (RD)", "result": 0.35, "unit": "µM"}, {"measurement": "Viral RNA copies (Fig6B)", "setting": "[13]; OC43, concentration 4", "result": "7.43E+03 and 9.55E+03 and 9.54E+03"}, {"measurement": "Viral RNA copies (Fig6B)", "setting": "[13]; OC43, concentration 20", "result": "3.88E+03 and 6.38E+03 and 7.34E+03"}, {"measurement": "EC50 (OC43, RD): inhibition at the concentration", "setting": "[13]; conc. 0.1 (unit not given)", "result": "-75.5 and -76.6 and -100.8"}, {"measurement": "EC50 (OC43, RD): inhibition at the concentration", "setting": "[13]; conc. 0.2 (unit not given)", "result": "23.1 and 21.4 and 22.1"}, {"measurement": "EC50 (OC43, RD): inhibition at the concentration", "setting": "[13]; conc. 0.7 (unit not given)", "result": "88.5 and 91.5 and 92"}, {"measurement": "EC50 (OC43, RD): inhibition at the concentration", "setting": "[13]; conc. 2.2 (unit not given)", "result": 99.6}, {"measurement": "EC50 (OC43, RD): inhibition at the concentration", "setting": "[13]; conc. 6.7 (unit not given)", "result": 99.9}, {"measurement": "EC50 (OC43, RD): inhibition at the concentration", "setting": "[13]; conc. 20 (unit not given)", "result": 99.8}]}]}
